Inconclusive results are not listed. Calls of active or inactive are those of the source.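 Rule for the calls: active = IC50 at or below a set limit past the top dose tested; inconclusive = flat curve with 30 to 70% signal change, or a failed fit; inactive = IC50 above that set limit.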 Bounds are passed on as bounds.

For the assay, the system named is NIH3T3-HGL HSF1-luciferase reporter, MG132-induced, 8 h. The assay is described as follows: inhibition of MG132-induced HSE-luciferase signal, confirmation, cell-based, NIH3T3, luminescence, dose retest (AID 2382).
The IC50 is the concentration needed to halve the response being measured. Consider `C#CCOCCOCCOCCNc1nc(N2CCN(C(=O)[C@H](CCC(=O)O)n3cc(C(N)Cc4ccc(O)cc4)nn3)CC2)nc(N2CCN(C(=O)[C@H](Cc3ccc(O)cc3)n3cc(C(N)[C@H](C)CC)nn3)CC2)n1` (stereo partly drawn), for which the IC50 is > 19.5 µM (inactive). As for `O=C(NN=C1CCC(c2ccccc2)CC1)c1cc2c(s1)CCCC2` (stereo not drawn), the figure is > 19.5 µM (inactive); as for `Cc1cc(=O)[nH]c(NN=C2CCC(C(C)(C)C)CC2)n1` (stereo not drawn), > 19.5 µM (inactive).

The values above are taken from PubChem BioAssay AID2382 (Broad Institute, 2010).
